Drawing on PubChem BioAssay (NCI), this text covers TGI and GI50 for 23 compounds.

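Method: 48-hour compound exposure of cells in 96-well plates, five concentrations, linear interpolation of endpoints. GI50: concentration for 50% inhibition of growth. TGI marks complete inhibition of growth.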

Among the test systems are NCI-H23 lung; COLO 205 colon; EKVX NSCLC; RPMI-8226 leukemia; NCI-H460 lung; MOLT-4 leukemia; T-47D breast; SK-OV-3 ovarian; HL-60(TB) leukemia.
Common to all, as to assay: inhibition of tumour cell growth, NCI panel, 48 h

With `CC1(C)C(=S)C(C)(C)C1=S`, the TGI in the experiment with NCI-H23 lung, in the experiment with COLO 205 colon, with EKVX NSCLC, with RPMI-8226 leukemia, in the experiment with NCI-H460 lung and in the experiment on MOLT-4 leukemia was greater than 100 µM throughout. In addition, the TGI in the experiment on T-47D breast and in the experiment with SK-OV-3 ovarian was greater than 100 µM each time.
Turning to `C=C1Oc2nc3ccccc3c(=O)n2C1(C)C`, the TGI in the experiment with NCI-H23 lung, in the experiment with HL-60(TB) leukemia, in the experiment with COLO 205 colon, with EKVX NSCLC, in the experiment on RPMI-8226 leukemia and in the experiment on NCI-H460 lung was greater than 100 µM throughout. The TGI in the experiment on MOLT-4 leukemia and in the experiment with SK-OV-3 ovarian was greater than 100 µM throughout.
For the compound `O=S1(=O)CS(=O)(=O)OCCCO1`, the TGI in the experiment with NCI-H23 lung, in the experiment on HL-60(TB) leukemia, in the experiment on COLO 205 colon, in the experiment on EKVX NSCLC, in the experiment with RPMI-8226 leukemia and in the experiment with NCI-H460 lung was greater than 100 µM in each case. Besides, the TGI in the experiment with MOLT-4 leukemia, with T-47D breast and with SK-OV-3 ovarian was greater than 100 µM each time.
For the compound `Cc1cc(NS(=O)(=O)c2ccc(NC(=O)c3cccc4c(Nc5ccc(S(=O)(=O)Nc6cc(C)on6)cc5)c5ccccc5nc34)cc2)no1`, the TGI with NCI-H23 lung is greater than 100 µM; with HL-60(TB) leukemia it was 67 µM; in the experiment with COLO 205 colon it was greater than 100 µM; in the experiment with EKVX NSCLC it was greater than 100 µM; in the experiment on RPMI-8226 leukemia it was greater than 100 µM; with NCI-H460 lung it was greater than 100 µM. Further, the TGI in the experiment with MOLT-4 leukemia is 95.4 µM; in the experiment on SK-OV-3 ovarian, greater than 100 µM.
Turning to `N#CCC(=O)N/N=C1\C(=O)N(c2ccc(Cl)cc2)C(=O)C(=O)C1c1nc2ccccc2o1` (stereo not drawn), the TGI in the experiment with NCI-H23 lung, with HL-60(TB) leukemia, in the experiment with COLO 205 colon, with EKVX NSCLC, with NCI-H460 lung and in the experiment on MOLT-4 leukemia was greater than 100 µM each time. For the same compound, the TGI with SK-OV-3 ovarian is greater than 100 µM.
Regarding `O=C(O)CCC1(Br)CCCCC(Br)C1=O` (stereo not drawn), the TGI in the experiment on NCI-H23 lung, in the experiment with HL-60(TB) leukemia, with COLO 205 colon, with EKVX NSCLC, with RPMI-8226 leukemia and in the experiment on NCI-H460 lung was greater than 100 µM each time. Moreover, the TGI in the experiment on MOLT-4 leukemia and in the experiment on SK-OV-3 ovarian was greater than 100 µM throughout.
As for `CC(C)(C)[Si](C)(C)O/N=C\c1ccc(O[Si](C)(C)C(C)(C)C)cc1`, the TGI in the experiment with NCI-H23 lung, with HL-60(TB) leukemia, with COLO 205 colon, in the experiment on EKVX NSCLC, in the experiment with RPMI-8226 leukemia and in the experiment with NCI-H460 lung was greater than 100 µM each time. The TGI in the experiment on MOLT-4 leukemia and in the experiment with SK-OV-3 ovarian was greater than 100 µM in each case.
For `O=C(O)C1CCCCN1C(=O)c1ccccc1` (stereo not drawn), the TGI with NCI-H23 lung, in the experiment with HL-60(TB) leukemia, in the experiment with COLO 205 colon, in the experiment with EKVX NSCLC, with RPMI-8226 leukemia and with NCI-H460 lung was greater than 100 µM in each case. Further, the TGI in the experiment on MOLT-4 leukemia and in the experiment on SK-OV-3 ovarian was greater than 100 µM in each case.
With `Clc1ccc(OC2CCO2)cc1Cl` (stereo not drawn), the TGI in the experiment with NCI-H23 lung, with HL-60(TB) leukemia, in the experiment with COLO 205 colon, in the experiment on EKVX NSCLC, in the experiment with RPMI-8226 leukemia and with NCI-H460 lung was greater than 100 µM each time. Besides, the TGI with MOLT-4 leukemia and in the experiment with SK-OV-3 ovarian was greater than 100 µM in each case.
Regarding `CCN(CC)CCNC(=O)c1cccc2cc3ccccc3nc12`, the TGI was 24.4 µM in the experiment on HL-60(TB) leukemia; 20.2 µM in the experiment on COLO 205 colon; 41.6 µM in the experiment on EKVX NSCLC; 11.6 µM in the experiment with NCI-H460 lung; 7.95 µM in the experiment on MOLT-4 leukemia; 37.9 µM in the experiment on SK-OV-3 ovarian.
For the compound `CC[O-].Cc1ccc2cccc([O-])c2n1.Cc1ccc2cccc([O-])c2n1.Cc1ccc2cccc([O-])c2n1.[Ti+4]`, the GI50 is greater than 63.5 µM in the experiment on NCI-H23 lung; 3.3 µM in the experiment with HL-60(TB) leukemia; 19.5 µM in the experiment with COLO 205 colon; greater than 46 µM with EKVX NSCLC; 11.5 µM with RPMI-8226 leukemia; 20.2 µM in the experiment with NCI-H460 lung. The figures for the GI50 in the experiment on MOLT-4 leukemia and in the experiment with SK-OV-3 ovarian were 6.07 µM and greater than 68.9 µM, respectively. Further, the TGI with NCI-H23 lung is greater than 100 µM; in the experiment on HL-60(TB) leukemia, 16 µM; in the experiment with COLO 205 colon, 39.8 µM; in the experiment on EKVX NSCLC it was greater than 73.5 µM; in the experiment on RPMI-8226 leukemia, 49.5 µM; in the experiment on NCI-H460 lung, greater than 100 µM. Moreover, the TGI in the experiment on MOLT-4 leukemia is 35.8 µM; with SK-OV-3 ovarian it was greater than 100 µM.
`O=c1c2ccccc2c(=O)c2c1cc(Cl)c1[nH]c3c([nH]c12)c(Cl)cc1c(=O)c2ccccc2c(=O)c13`: the TGI in the experiment on NCI-H23 lung, in the experiment with HL-60(TB) leukemia, in the experiment with COLO 205 colon, in the experiment on EKVX NSCLC, in the experiment with RPMI-8226 leukemia and with NCI-H460 lung was greater than 100 µM each time. Further, the TGI with MOLT-4 leukemia and with SK-OV-3 ovarian was greater than 100 µM throughout.
As to `C/C(=N/NC(=O)C(N)=O)C(CC(C(=O)Nc1ccccc1C)/C(C)=N\NC(=O)C(N)=O)C(=O)Nc1ccccc1C` (stereo not drawn), the TGI with NCI-H23 lung, in the experiment with HL-60(TB) leukemia, with COLO 205 colon, in the experiment on EKVX NSCLC, with RPMI-8226 leukemia and with NCI-H460 lung was greater than 100 µM in each case. For the same compound, the TGI with MOLT-4 leukemia and in the experiment with SK-OV-3 ovarian was greater than 100 µM throughout.
For `O=C(Nc1ccccc1Br)c1cccc([N+](=O)[O-])c1O`, the TGI in the experiment with NCI-H23 lung was 6.31 µM; in the experiment with HL-60(TB) leukemia, 12.9 µM; in the experiment with COLO 205 colon, greater than 33.4 µM; in the experiment with EKVX NSCLC, 42.9 µM; in the experiment on RPMI-8226 leukemia, 6.27 µM; in the experiment with NCI-H460 lung it was greater than 37.9 µM. Moreover, the TGI was 10.4 µM with MOLT-4 leukemia and greater than 57.8 µM with SK-OV-3 ovarian.
Consider `O=C(O)C1c2ccccc2C(C(=O)O)c2ccccc21` (stereo not drawn), for which the TGI in the experiment with HL-60(TB) leukemia, in the experiment on COLO 205 colon, in the experiment on RPMI-8226 leukemia, with NCI-H460 lung, with MOLT-4 leukemia and in the experiment on SK-OV-3 ovarian was greater than 100 µM each time.
For the compound `CCC[CH2][Sn]([CH2]CCC)([O]C(=O)c1nccnc1N)[O]C(=O)c1nccnc1N`, the GI50 was 0.573 µM with NCI-H23 lung; 0.262 µM in the experiment on HL-60(TB) leukemia; 0.899 µM in the experiment with COLO 205 colon; 1.02 µM with EKVX NSCLC; 1.63 µM in the experiment on NCI-H460 lung; 0.257 µM in the experiment with MOLT-4 leukemia. Also, the GI50 in the experiment with SK-OV-3 ovarian is 2.06 µM. For the same compound, the TGI amounted to 1.91 µM in the experiment with NCI-H23 lung; 1.42 µM in the experiment with HL-60(TB) leukemia; 2.1 µM in the experiment with COLO 205 colon; 2.18 µM in the experiment with EKVX NSCLC; 3.33 µM in the experiment with NCI-H460 lung; 1.1 µM in the experiment on MOLT-4 leukemia. Further, the TGI in the experiment with SK-OV-3 ovarian came out at 3.63 µM.
On to `COc1cc2cc[n+]3c4cc(OC)c(OC)cc4c(C)cc3c2cc1OC`, for which the TGI in the experiment on NCI-H23 lung, in the experiment with HL-60(TB) leukemia, with COLO 205 colon, in the experiment with EKVX NSCLC, in the experiment with RPMI-8226 leukemia and with NCI-H460 lung was greater than 100 µM in each case. Moreover, the TGI in the experiment on MOLT-4 leukemia and with SK-OV-3 ovarian was greater than 100 µM each time.
In the case of `CN(c1ccccc1)C1C(=O)N(c2ccccc2)C1/C=C/c1ccccc1` (stereo not drawn), the TGI in the experiment on NCI-H23 lung, in the experiment on HL-60(TB) leukemia, with COLO 205 colon, in the experiment with EKVX NSCLC, in the experiment on RPMI-8226 leukemia and in the experiment on NCI-H460 lung was greater than 100 µM each time. The TGI in the experiment with MOLT-4 leukemia and with SK-OV-3 ovarian was greater than 100 µM throughout.
For `Cc1cc(C(=O)N2CCN(Cc3ccccc3)CC2)c(C)o1`, the TGI in the experiment on NCI-H23 lung, in the experiment with HL-60(TB) leukemia, with EKVX NSCLC, in the experiment with RPMI-8226 leukemia, with NCI-H460 lung and in the experiment on MOLT-4 leukemia was greater than 100 µM throughout. For the same compound, the TGI in the experiment on SK-OV-3 ovarian is greater than 100 µM.
Regarding `C[C@H]1CC(=O)C2=CCCC3(SCCCS3)[C@@H]2[C@H]1CO`, the TGI with NCI-H23 lung, in the experiment on HL-60(TB) leukemia, in the experiment on COLO 205 colon, in the experiment with EKVX NSCLC, in the experiment with RPMI-8226 leukemia and in the experiment on NCI-H460 lung was greater than 100 µM in each case. Besides, the TGI in the experiment on MOLT-4 leukemia and with SK-OV-3 ovarian was greater than 100 µM throughout.
With `CC1=C(c2cc(C(=O)Nc3ccc(Cl)c(Cl)c3)nc(N)n2)Sc2ccccc2N1`, the TGI in the experiment on NCI-H23 lung, in the experiment on HL-60(TB) leukemia, with COLO 205 colon, in the experiment with EKVX NSCLC, in the experiment with RPMI-8226 leukemia and in the experiment with NCI-H460 lung was greater than 100 µM throughout. Besides, the TGI with MOLT-4 leukemia and in the experiment with SK-OV-3 ovarian was greater than 100 µM throughout.
As for `O=C(O)C#CCO`, the TGI in the experiment on NCI-H23 lung, in the experiment with HL-60(TB) leukemia, in the experiment on COLO 205 colon, in the experiment on EKVX NSCLC, in the experiment on RPMI-8226 leukemia and with NCI-H460 lung was greater than 100 µM in each case. Also, the TGI in the experiment with MOLT-4 leukemia and in the experiment on SK-OV-3 ovarian was greater than 100 µM each time.
Regarding `COC(=O)C1CCC(Nc2cccc(C(F)(F)F)c2)=N1` (stereo not drawn), the TGI in the experiment with NCI-H23 lung, in the experiment on HL-60(TB) leukemia, in the experiment on COLO 205 colon, in the experiment with EKVX NSCLC, in the experiment with RPMI-8226 leukemia and in the experiment with NCI-H460 lung was greater than 100 µM each time. Also, the TGI with MOLT-4 leukemia and with SK-OV-3 ovarian was greater than 100 µM in each case.
